Experimental data as given in patent US5304367A, “In vivo brain imaging agent and method for diagnosis of psychiatric disorders” (New York University, priority 1990, dated 1994).

Tested on: βAR
Experiment: quantitative autoradiography, age dependence of βAR distribution in the human brain
Format: binding

With `CC(C)NCC(O)COc1cccc2[nH]cc([125I])c12` (centres unmarked) [^125 I-iodopindolol] the specifically bound (caudate nucleus, head, male, N=5) was 1.45 ± 0.34 fmol [^125 I]iodopindolol/mg tissue, the specifically bound (caudate nucleus, tail, female, N=8) was 1.15 ± 0.17 fmol [^125 I]iodopindolol/mg tissue and the specifically bound (caudate nucleus, tail, male, N=14) was 1.39 ± 0.23 fmol [^125 I]iodopindolol/mg tissue. The specifically bound (claustrum, female, N=5) was 0.64 ± 0.18 fmol [^125 I]iodopindolol/mg tissue, the specifically bound (claustrum, male, N=9) was 0.86 ± 0.14 fmol [^125 I]iodopindolol/mg tissue and the specifically bound (entorhinal cortex, female, N=3) was 0.94 ± 0.33 fmol [^125 I]iodopindolol/mg tissue. The specifically bound (entorhinal cortex, male, N=10) was 1.00 ± 0.19 fmol [^125 I]iodopindolol/mg tissue, the specifically bound (globus pallidus, lateral, female, N=5) was 0.78 ± 0.16 fmol [^125 I]iodopindolol/mg tissue and the specifically bound (globus pallidus, lateral, male, N=8) was 0.85 ± 0.20 fmol [^125 I]iodopindolol/mg tissue. For the same compound, the specifically bound (globus pallidus, medial, female, N=3) was 0.44 ± 0.09 fmol [^125 I]iodopindolol/mg tissue, the specifically bound (globus pallidus, medial, male, N=8) was 0.73 ± 0.17 fmol [^125 I]iodopindolol/mg tissue and the specifically bound (hippocampus, CA fields, molecular layer, female, N=4) was 1.70 ± 0.40 fmol [^125 I]iodopindolol/mg tissue. The specifically bound (hippocampus, CA fields, molecular layer, male, N=13) was 1.74 ± 0.26 fmol [^125 I]iodopindolol/mg tissue, the specifically bound (hippocampus, CA fields, pyramidal layer, female, N=4) was 1.70 ± 0.26 fmol [^125 I]iodopindolol/mg tissue and the specifically bound (hippocampus, CA fields, pyramidal layer, male, N=13) was 1.74 ± 0.26 fmol [^125 I]iodopindolol/mg tissue. The specifically bound (inferior temporal gyrus, external band, female, N=5) was 1.21 ± 0.14 fmol [^125 I]iodopindolol/mg tissue, the specifically bound (inferior temporal gyrus, external band, male, N=13) was 1.04 ± 0.16 fmol [^125 I]iodopindolol/mg tissue and the specifically bound (inferior temporal gyrus, internal band, female, N=6) was 1.11 ± 0.17 fmol [^125 I]iodopindolol/mg tissue. The specifically bound (inferior temporal gyrus, internal band, male, N=13) was 1.14 ± 0.17 fmol [^125 I]iodopindolol/mg tissue, the specifically bound (lateral occipitotemporal gyrus, external band, female, N=6) was 0.93 ± 0.19 fmol [^125 I]iodopindolol/mg tissue and the specifically bound (lateral occipitotemporal gyrus, external band, male, N=13) was 0.94 ± 0.13 fmol [^125 I]iodopindolol/mg tissue. For the same compound, the specifically bound (lateral occipitotemporal gyrus, internal band, female, N=6) was 0.86 ± 0.11 fmol [^125 I]iodopindolol/mg tissue, the specifically bound (lateral occipitotemporal gyrus, internal band, male, N=13) was 1.02 ± 0.14 fmol [^125 I]iodopindolol/mg tissue and the specifically bound (medial temporal gyrus, external band, female, N=6) was 1.03 ± 0.15 fmol [^125 I]iodopindolol/mg tissue. For the same compound, the specifically bound (medial temporal gyrus, external band, male, N=13) was 1.05 ± 0.18 fmol [^125 I]iodopindolol/mg tissue, the specifically bound (medial temporal gyrus, internal band, female, N=6) was 1.06 ± 0.15 fmol [^125 I]iodopindolol/mg tissue and the specifically bound (medial temporal gyrus, internal band, male, N=13) was 1.18 ± 0.17 fmol [^125 I]iodopindolol/mg tissue. The specifically bound (parahippocampal gyrus, external band, female, N=7) was 1.22 ± 0.32 fmol [^125 I]iodopindolol/mg tissue, the specifically bound (parahippocampal gyrus, external band, male, N=13) was 1.07 ± 0.19 fmol [^125 I]iodopindolol/mg tissue and the specifically bound (parahippocampal gyrus, internal band, female, N=6) was 1.01 ± 0.23 fmol [^125 I]iodopindolol/mg tissue. The specifically bound (parahippocampal gyrus, internal band, male, N=13) was 0.95 ± 0.15 fmol [^125 I]iodopindolol/mg tissue, the specifically bound (putamen, female, N=6) was 1.05 ± 0.22 fmol [^125 I]iodopindolol/mg tissue and the specifically bound (putamen, male, N=11) was 1.24 ± 0.18 fmol [^125 I]iodopindolol/mg tissue. The specifically bound (subiculum, female, N=5) was 1.35 ± 0.33 fmol [^125 I]iodopindolol/mg tissue, the specifically bound (subiculum, male, N=12) was 1.36 ± 0.20 fmol [^125 I]iodopindolol/mg tissue and the specifically bound (superior temporal gyrus, external band, female, N=6) was 1.18 ± 0.18 fmol [^125 I]iodopindolol/mg tissue. For the same compound, the specifically bound (superior temporal gyrus, external band, male, N=14) was 1.13 ± 0.16 fmol [^125 I]iodopindolol/mg tissue, the specifically bound (superior temporal gyrus, internal band, female, N=6) was 1.04 ± 0.13 fmol [^125 I]iodopindolol/mg tissue and the specifically bound (superior temporal gyrus, internal band, male, N=14) was 1.18 ± 0.15 fmol [^125 I]iodopindolol/mg tissue. For the same compound, the specifically bound (white matter, female, N=8) was 0.47 ± 0.09 fmol [^125 I]iodopindolol/mg tissue and the specifically bound (white matter, male, N=18) was 0.59 ± 0.07 fmol [^125 I]iodopindolol/mg tissue.
